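Values below derive from 48-hour exposures of cells grown in 96-well plates, with endpoints linearly interpolated between the two concentrations bracketing the appropriate inhibition level. GI50: concentration for 50% inhibition of growth.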 Activity calls are given as the source filed them. Cut-off read from the data, not from the text of the source: active = GI50 up to about 1.1 µM and inactive = higher.
Columns and labels:
Test in all cases: NCI-60 cell line screen, 48 h
EKVX = tested on: EKVX
HOP-92 = tested on: HOP-92
MDA-MB-435 = tested on: MDA-MB-435
DU-145 = tested on: DU-145
SNB-75 = tested on: SNB-75
HCC 2998 = tested on: HCC 2998
T47D = tested on: T47D
Malme-3M = tested on: Malme-3M
A498 = tested on: A498
HL-60 = tested on: HL-60
786-0 = tested on: 786-0
MOLT-4 = tested on: MOLT-4
M14 = tested on: M14
HOP-62 = tested on: HOP-62
PC-3 = tested on: PC-3
MCF7 = tested on: MCF7
IGROV-1 = tested on: IGROV-1
SR = tested on: SR
SK-MEL-28 = tested on: SK-MEL-28
KM12 = tested on: KM12

| Compound | GI50 (EKVX) | GI50 (HOP-92) | GI50 (MDA-MB-435) | GI50 (DU-145) | GI50 (SNB-75) | GI50 (HCC 2998) | GI50 (T47D) | GI50 (Malme-3M) | GI50 (A498) | GI50 (HL-60) | GI50 (786-0) | GI50 (MOLT-4) | GI50 (M14) | GI50 (HOP-62) | GI50 (PC-3) | GI50 (MCF7) | GI50 (IGROV-1) | GI50 (SR) | GI50 (SK-MEL-28) | GI50 (KM12) |
| --- | --- | --- | --- | --- | --- | --- | --- | --- | --- | --- | --- | --- | --- | --- | --- | --- | --- | --- | --- | --- |
| O=c1c(Cc2c(O)ccc3ccccc23)nnc2sc(-c3nn4c(=O)c(Cc5c(O)ccc6ccccc56)nnc4s3)nn12 | 29.2 µM (inactive) | 38.1 µM (inactive) | > 100 µM (inactive) | > 100 µM (inactive) | 9.2 µM (inactive) | > 100 µM (inactive) | 37.2 µM (inactive) | > 100 µM (inactive) | 42.2 µM (inactive) | 30.8 µM (inactive) | 14.8 µM (inactive) | > 10 µM (inactive) | > 100 µM (inactive) | 28.5 µM (inactive) | > 100 µM (inactive) | 18 µM (inactive) | > 100 µM (inactive) | > 100 µM (inactive) |  |  |
| CCc1c(CNc2ccc(C(=O)NC(CC(=O)O)C(=O)O)cc2)ccc2nc(N)nc(N)c12 (stereo not given) | > 54.6 µM (inactive) | 6.44 µM (inactive) | < 0.01 µM (active) | 0.0125 µM (active) | 3.52 µM (inactive) | 0.0465 µM (active) | 20.5 µM (inactive) | 0.953 µM (active) | 2.03 µM (inactive) | < 0.0316 µM (active) | < 0.01 µM (active) | < 0.0182 µM (active) | < 0.01 µM (active) | 0.267 µM (active) | 305 µM (inactive) | < 0.0182 µM (active) | < 0.0177 µM (active) | < 0.01 µM (active) | 10.2 µM (inactive) |  |
| CC1CCC2(CC1)N=C1CCC(C)CC1C1(CCC(C)CC1)N2 (stereo not given) | > 10 µM (inactive) | > 100 µM (inactive) | > 100 µM (inactive) | > 100 µM (inactive) | 19.6 µM (inactive) | 69 µM (inactive) | 67.3 µM (inactive) | > 100 µM (inactive) | > 100 µM (inactive) | 43.8 µM (inactive) | > 100 µM (inactive) | 25.9 µM (inactive) | > 100 µM (inactive) |  | 41.2 µM (inactive) | > 100 µM (inactive) | > 100 µM (inactive) | 50.8 µM (inactive) | > 100 µM (inactive) | > 100 µM (inactive) |
| CSc1ccc(/C=C2\N=C(c3ccccc3)N(c3nc4c(Cl)cc(Cl)cc4s3)C2=O)cc1 | 13.6 µM (inactive) | 32.8 µM (inactive) | 16.6 µM (inactive) | 46 µM (inactive) | 36.6 µM (inactive) | 29 µM (inactive) | 38.5 µM (inactive) |  | 17 µM (inactive) | 21.6 µM (inactive) | 25.9 µM (inactive) | 18.6 µM (inactive) | 25.7 µM (inactive) | 18.1 µM (inactive) | 20.4 µM (inactive) | 24.9 µM (inactive) | 35.3 µM (inactive) | 20.9 µM (inactive) | 31.1 µM (inactive) | 23 µM (inactive) |
| CCOC(=O)c1ccc(NCC#CCN2CCCCC2)cc1 | > 100 µM (inactive) | > 100 µM (inactive) | > 100 µM (inactive) | > 100 µM (inactive) |  |  | > 100 µM (inactive) | > 100 µM (inactive) | > 100 µM (inactive) | 60.1 µM (inactive) | > 100 µM (inactive) | > 100 µM (inactive) | 59.2 µM (inactive) | > 100 µM (inactive) | > 100 µM (inactive) | 73.8 µM (inactive) | > 100 µM (inactive) | > 100 µM (inactive) | > 100 µM (inactive) | > 100 µM (inactive) |
| CC(C(=O)n1ccnc1)N1c2ccccc2Sc2ccccc21 (stereo not given) | 88.3 µM (inactive) | 25.1 µM (inactive) | > 100 µM (inactive) | > 100 µM (inactive) | 40.6 µM (inactive) |  | 39.5 µM (inactive) | 83.6 µM (inactive) | 47.2 µM (inactive) | 91.8 µM (inactive) | 59.2 µM (inactive) | 43 µM (inactive) | 77.3 µM (inactive) | 67.5 µM (inactive) | 55.1 µM (inactive) | 53.1 µM (inactive) | > 100 µM (inactive) | 50.1 µM (inactive) | > 100 µM (inactive) | 71.3 µM (inactive) |
| COC(=O)C1(Cc2ccc3c(c2)CCC3)Cc2ccc3c(c2C1)CCC3 (stereo not given) | 31.3 µM (inactive) | 18.7 µM (inactive) | 12.7 µM (inactive) | 24.8 µM (inactive) | > 100 µM (inactive) | 34.5 µM (inactive) | 1.47 µM (inactive) | 16.5 µM (inactive) | 22.3 µM (inactive) | 23.4 µM (inactive) | 24.5 µM (inactive) | 43.3 µM (inactive) |  | 30.1 µM (inactive) | 16.9 µM (inactive) | 13.2 µM (inactive) | 21.1 µM (inactive) | > 10 µM (inactive) | 23.9 µM (inactive) | 17.7 µM (inactive) |
| O=C(NCCCCCCCCNC(=O)c1cc(-c2ccccc2)nc2ccccc12)c1cc(-c2ccccc2)nc2ccccc12 | > 100 µM (inactive) | > 100 µM (inactive) | > 100 µM (inactive) | > 100 µM (inactive) | 38.6 µM (inactive) |  | > 100 µM (inactive) | > 100 µM (inactive) | > 100 µM (inactive) | > 100 µM (inactive) | 41.7 µM (inactive) | > 100 µM (inactive) | > 100 µM (inactive) | 38.8 µM (inactive) | > 100 µM (inactive) | > 100 µM (inactive) | > 100 µM (inactive) | > 100 µM (inactive) | > 100 µM (inactive) |  |
| COC(=O)CC(C)(N[S+]([O-])c1ccc(C)cc1)c1ccccc1 (stereo not given) | > 100 µM (inactive) | > 100 µM (inactive) | > 100 µM (inactive) | > 100 µM (inactive) |  | > 100 µM (inactive) | > 100 µM (inactive) | > 100 µM (inactive) | > 100 µM (inactive) | > 100 µM (inactive) | > 100 µM (inactive) | > 100 µM (inactive) |  | > 100 µM (inactive) | > 100 µM (inactive) | > 100 µM (inactive) | > 100 µM (inactive) | > 100 µM (inactive) | > 100 µM (inactive) | > 100 µM (inactive) |
| CSC(=S)CC(O)[C@@H]1CC2c3ccccc3C1c1ccccc12 (stereo not given in full) |  | 17.4 µM (inactive) | 11.3 µM (inactive) | 15.2 µM (inactive) | > 10 µM (inactive) | 12.8 µM (inactive) | 5.5 µM (inactive) | 19.7 µM (inactive) | 20.7 µM (inactive) | 2.54 µM (inactive) | 18 µM (inactive) | 1.49 µM (inactive) | 12.7 µM (inactive) | 15.7 µM (inactive) | 5.83 µM (inactive) | 13.9 µM (inactive) | 11.8 µM (inactive) | 3.46 µM (inactive) | 21.7 µM (inactive) | 11.3 µM (inactive) |
| c1coc(-c2nccc3c2[nH]c2ccccc23)c1 | > 100 µM (inactive) | 35 µM (inactive) | > 100 µM (inactive) | > 100 µM (inactive) |  | > 100 µM (inactive) | > 100 µM (inactive) | > 100 µM (inactive) | > 100 µM (inactive) | > 100 µM (inactive) | > 100 µM (inactive) | > 100 µM (inactive) | > 100 µM (inactive) | > 100 µM (inactive) | > 100 µM (inactive) | > 100 µM (inactive) | > 100 µM (inactive) | > 100 µM (inactive) | > 100 µM (inactive) | > 100 µM (inactive) |
